The text below walks through data of patent US11179394B2, “Method for treating cancer using a combination of Chk1 and ATR inhibitors” (priority 2014, dated 2021).

For data set [1], the system named is MX-1 breast cancer cell line. The following applies: AZD7762 25 mg/kg intraperitoneal, VE-822 60 mg/kg oral gavage; for survival: combination P<0.05.
Description: (§2) In the case of the MX-1 model, 2 million cells in 50% matrigel were injected in nude mice and for the H460 model 5 million cells in PBS were injected in nude mice. After 8-9 days of implantation animals were divided into 4 groups of 5 animals based on tumor size; with mean tumor volume of 130 mm^3. […] Body weight and tumor volume were measured twice a week. Tumor volume was measured with caliper and shown as mean±S.E.M (length×width×width×0.52).
Data set [2] deals with H460 lung cancer cell line. The following applies: AZD7762 25 mg/kg intraperitoneal, VE-822 60 mg/kg oral gavage; for survival: combination vs monotherapy P<0.01; for tumor size / tumor growth: combination vs monotherapy P<0.05.
Description: as §2
The subject of data set [3] is BJ-hTERT parental cells. The data set is described as follows: Cell viability by resazurin staining. Type of data set: cell-based. The following applies: 72 hours, AZD7762 30 nM. (In general: Resazurin is reduced to fluorescent resorufin, in cell work by metabolically active cells.)
Description: Referring to FIG. 2D, an isogenic cell pair was used to assess the impact of loss of p53 and RB on cell sensitivity to the combination of VE-821 and AZD7762 (BJ-hTERT parental cells vs BJ-SV40T cells expressing the Large Tumor Antigen which inactivates p53 and RB function). In addition, the impact of expression of the H-RAS oncogene was assessed in the BJ-SV40T cells transformed with activated H-RAS(G12V) (BJ RAS). Cells were treated with either VE-821 alone (at concentrations up to 5 μM), AZD7762 alone (30 nM) or the combination of VE-821 and AZD7762 for 72 hours.
Data set [4] concerns HA1EB-GFP parental cells. In words: Cell viability by resazurin staining. Type of data set: cell-based. The following applies: 72 hours, VE-821 up to 5 μM, AZD7762 30 nM.
Data set [5] has as its system BJ RAS cells (BJ-SV40T transformed with activated H-RAS(G12V)). The data set is described as follows: Cell viability by resazurin staining. The following applies: 72 hours, VE-821 up to 5 μM, AZD7762 30 nM.
Description: (§3) In addition, the impact of expression of the H-RAS oncogene was assessed in the BJ-SV40T cells transformed with activated H-RAS(G12V) (BJ RAS).
Data set [6] concerns cMYC transformed cells, HA1EB-GFP-cMYC. In words: Cell viability by resazurin staining. The following applies: 72 hours, VE-821 up to 5 μM, AZD7762 30 nM.
Data set [7] relates to BJ-SV40T cells (p53 and RB inactivated). The data set is described as follows: Cell viability by resazurin staining. The following applies: 72 hours, VE-821 up to 5 μM, AZD7762 30 nM.
Description: as §3
The subject of data set [8] is U2OS cancer cells. In words: Clonogenic survival assay. Type of data set: cell-based. The following applies: 1 μM VE-821, 72 hr, AZD7762 20 nM where combined. On the procedure: (§1) 500 cells of U2OS, MCF-7, DLD-1, DLD-1 Chk-1^S317A/-, DLD-1 Chk-1^+/−, DLD-1 ATR^S/S and 1000 cells of VH-10 were plated on 10 cm plate. After 5 hr. of incubation (5% CO2 at 37° C.) vehicle (0.05% DMSO max) various concentration of ATR inhibitor VE-821 were directly added to the media containing plate and incubated for 72 hr. At the end of 72 hr. of incubation, vehicle and drug containing media was replaced with fresh media and further incubated for another 5-8 days before plates were fixed and stained with 4% methylene blue in MeOH and colonies were counted manually. Each data point represents a triplicate data set±SEM.

The test system of data set [9] is DLD-1 cells expressing the inactive mutant form of Chk1 (S317A/-). The data set is described as follows: Clonogenic survival assay. The following applies: Homo sapiens; DLD-1 Chk1 S317A/-; 1 μM VE-821; read-out: viable cells remaining. It counts as cell-based. Here is the method:
as §1

In data set [10] the test system is MCF-7 cancer cells. The data set is described as follows: Clonogenic survival assay. It counts as cell-based. The following applies: 1 μM VE-821, 72 hr, AZD7762 20 nM where combined. On the procedure:
as §1

Data set [11] deals with ATR (Homo sapiens, UniProt Q13535). The following applies: 1 μM VE-821; cited from earlier work.
Data set [12] concerns Parental DLD-1 cells. In words: cells. The following applies: Homo sapiens, DLD-1, read-out: cell viability. It counts as cell-based. On the procedure: as §1
Data set [13] concerns U2OS cells. In words: Cleaved caspase-3 (apoptosis) with hydroxyurea. Type of data set: cell-based. The following applies: 24 hr, hydroxyurea (2 mM) alone.
Description: Referring to FIG. 5, the impact of Chk1 inhibition by AZD7762 on cell apoptosis from treatment with the ATR inhibitor VE-821 and a representative DNA damaging agent, hydroxyl urea (2 mM), was assessed by measuring levels of cleaved caspase-3, a widely used marker of apoptosis. U2OS cells were treated for 24 hr. with the DNA damaging agent hydroxyurea and varied doses of AZD7762 and/or VE-821. Cells were subsequently stained with anti-cleavage caspase 3 and β actin antibodies and confocal microscopy used to take and quantify images. Data are presented as % cells positive for cleaved capsae-3.

Where only a bound is given, the exact number is not on record here.

Chain of ATR (Q13535 whole entry): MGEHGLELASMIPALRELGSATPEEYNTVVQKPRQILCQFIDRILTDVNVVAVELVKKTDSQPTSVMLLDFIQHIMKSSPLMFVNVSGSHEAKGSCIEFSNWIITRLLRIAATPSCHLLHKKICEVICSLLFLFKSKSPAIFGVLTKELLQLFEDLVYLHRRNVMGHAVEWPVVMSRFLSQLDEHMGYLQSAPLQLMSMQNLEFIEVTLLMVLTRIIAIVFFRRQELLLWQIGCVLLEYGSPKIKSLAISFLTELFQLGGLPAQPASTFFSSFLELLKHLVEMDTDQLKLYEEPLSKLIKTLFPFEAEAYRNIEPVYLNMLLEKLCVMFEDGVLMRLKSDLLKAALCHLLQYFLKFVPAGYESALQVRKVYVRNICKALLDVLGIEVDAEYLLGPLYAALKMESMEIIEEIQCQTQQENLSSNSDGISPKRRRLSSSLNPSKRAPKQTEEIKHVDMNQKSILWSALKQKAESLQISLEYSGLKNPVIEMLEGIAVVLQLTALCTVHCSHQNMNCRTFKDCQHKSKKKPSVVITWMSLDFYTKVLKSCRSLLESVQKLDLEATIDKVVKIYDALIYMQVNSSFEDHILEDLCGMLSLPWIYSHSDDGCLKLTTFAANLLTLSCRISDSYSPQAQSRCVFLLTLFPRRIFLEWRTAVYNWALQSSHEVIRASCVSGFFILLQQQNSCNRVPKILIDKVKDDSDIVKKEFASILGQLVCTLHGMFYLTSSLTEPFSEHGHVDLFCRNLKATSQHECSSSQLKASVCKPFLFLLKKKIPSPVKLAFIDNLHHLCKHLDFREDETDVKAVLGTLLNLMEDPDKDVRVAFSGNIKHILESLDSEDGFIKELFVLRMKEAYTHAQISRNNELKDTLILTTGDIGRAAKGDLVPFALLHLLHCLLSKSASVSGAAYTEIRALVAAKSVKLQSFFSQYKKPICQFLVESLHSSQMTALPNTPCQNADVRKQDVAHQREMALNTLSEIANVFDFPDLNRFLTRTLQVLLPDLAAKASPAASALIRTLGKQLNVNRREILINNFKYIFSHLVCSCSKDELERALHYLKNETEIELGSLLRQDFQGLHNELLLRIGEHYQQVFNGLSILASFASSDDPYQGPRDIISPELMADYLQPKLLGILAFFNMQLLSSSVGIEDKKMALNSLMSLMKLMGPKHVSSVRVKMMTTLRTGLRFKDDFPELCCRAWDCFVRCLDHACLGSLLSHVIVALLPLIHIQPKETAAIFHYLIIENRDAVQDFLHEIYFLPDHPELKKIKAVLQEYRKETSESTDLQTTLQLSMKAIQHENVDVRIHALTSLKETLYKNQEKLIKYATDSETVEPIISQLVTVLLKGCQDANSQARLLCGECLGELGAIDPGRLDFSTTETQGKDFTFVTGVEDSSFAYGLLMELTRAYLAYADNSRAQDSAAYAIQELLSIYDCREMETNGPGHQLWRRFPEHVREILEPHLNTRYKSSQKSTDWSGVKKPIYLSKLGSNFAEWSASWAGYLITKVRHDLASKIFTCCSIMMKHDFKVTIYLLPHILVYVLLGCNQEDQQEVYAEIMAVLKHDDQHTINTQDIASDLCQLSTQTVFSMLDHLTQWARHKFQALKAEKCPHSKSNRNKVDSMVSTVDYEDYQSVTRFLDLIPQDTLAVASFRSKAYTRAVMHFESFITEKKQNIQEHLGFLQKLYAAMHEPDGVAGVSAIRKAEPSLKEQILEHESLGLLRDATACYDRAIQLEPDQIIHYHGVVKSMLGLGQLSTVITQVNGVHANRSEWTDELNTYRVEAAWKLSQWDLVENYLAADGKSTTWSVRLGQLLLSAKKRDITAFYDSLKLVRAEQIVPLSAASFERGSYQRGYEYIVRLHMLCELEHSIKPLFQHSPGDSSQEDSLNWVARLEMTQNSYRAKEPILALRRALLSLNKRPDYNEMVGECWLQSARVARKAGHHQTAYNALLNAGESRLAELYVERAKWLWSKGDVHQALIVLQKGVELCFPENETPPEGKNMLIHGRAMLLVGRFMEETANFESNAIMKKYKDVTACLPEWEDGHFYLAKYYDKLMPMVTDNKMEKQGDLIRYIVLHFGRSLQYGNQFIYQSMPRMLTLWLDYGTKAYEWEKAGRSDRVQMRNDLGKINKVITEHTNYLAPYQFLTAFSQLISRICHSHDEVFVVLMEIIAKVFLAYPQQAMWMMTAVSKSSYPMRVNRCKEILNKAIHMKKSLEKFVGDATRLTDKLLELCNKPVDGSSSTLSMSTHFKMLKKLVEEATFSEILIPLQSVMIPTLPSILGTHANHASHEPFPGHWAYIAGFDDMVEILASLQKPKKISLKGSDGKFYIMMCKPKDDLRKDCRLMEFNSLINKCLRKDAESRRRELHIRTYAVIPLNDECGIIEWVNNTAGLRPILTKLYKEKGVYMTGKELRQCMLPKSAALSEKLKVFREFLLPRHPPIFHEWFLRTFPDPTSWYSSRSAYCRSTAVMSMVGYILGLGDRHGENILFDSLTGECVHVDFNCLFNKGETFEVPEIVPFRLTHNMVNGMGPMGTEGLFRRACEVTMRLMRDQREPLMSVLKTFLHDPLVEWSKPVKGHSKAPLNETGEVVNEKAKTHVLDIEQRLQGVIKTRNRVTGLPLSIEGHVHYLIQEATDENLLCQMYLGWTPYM
Chain of ATR (Q8WXE1 whole entry partner): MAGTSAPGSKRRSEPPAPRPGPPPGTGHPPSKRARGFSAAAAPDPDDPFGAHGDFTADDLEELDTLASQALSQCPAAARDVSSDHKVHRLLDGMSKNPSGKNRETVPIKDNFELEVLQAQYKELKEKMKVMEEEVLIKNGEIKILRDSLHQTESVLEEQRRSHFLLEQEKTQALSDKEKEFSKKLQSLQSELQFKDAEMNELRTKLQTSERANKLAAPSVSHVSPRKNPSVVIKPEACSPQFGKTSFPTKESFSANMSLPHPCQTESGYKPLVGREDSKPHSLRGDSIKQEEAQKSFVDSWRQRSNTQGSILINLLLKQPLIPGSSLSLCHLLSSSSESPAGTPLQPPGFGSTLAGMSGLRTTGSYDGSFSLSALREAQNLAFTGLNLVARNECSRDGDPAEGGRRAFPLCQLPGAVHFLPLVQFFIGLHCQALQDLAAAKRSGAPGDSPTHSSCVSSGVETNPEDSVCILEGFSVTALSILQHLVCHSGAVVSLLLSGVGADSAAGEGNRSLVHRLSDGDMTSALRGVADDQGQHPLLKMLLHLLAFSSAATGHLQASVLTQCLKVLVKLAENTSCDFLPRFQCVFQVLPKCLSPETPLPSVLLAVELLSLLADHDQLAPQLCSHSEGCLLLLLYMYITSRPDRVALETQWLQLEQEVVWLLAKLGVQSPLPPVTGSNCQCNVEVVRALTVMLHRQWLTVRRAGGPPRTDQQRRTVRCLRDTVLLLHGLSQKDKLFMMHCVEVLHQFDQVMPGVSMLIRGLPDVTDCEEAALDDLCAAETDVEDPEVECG

In the case of `CNCc1ccc(-c2cc(-c3nc(-c4ccc(S(=O)(=O)C(C)C)cc4)cnc3N)on2)cc1` [VE-822], the “tumor size / tumor growth” value in data set [1] and in data set [2] was “minimal impact” throughout. The survival entry in [1] and in data set [2] was “minimal impact” each time.

For `NC(=O)Nc1cc(-c2cccc(F)c2)sc1C(=O)N[C@H]1CCCNC1` [AZD7762, reference compound], the effect on viability entry is recorded as “did not have a marked effect” in [3] and “Neither VE-821 nor AZD7762 had a marked effect” in data set [4]. Moreover, the results for the viable cells remaining result in [5], in [6] and in data set [7] were “did not have a marked effect”, “did not impact the viability” and “did not have a marked effect”, respectively. Moreover, the results for the “tumor size / tumor growth” value in data set [1] and in data set [2] were “reduced tumor growth” and “minimal impact”, respectively. Also, the survival entry in [1] is “no impact”; in data set [2], “minimal impact”.

Regarding `CS(=O)(=O)c1ccc(-c2cnc(N)c(C(=O)Nc3ccccc3)n2)cc1` [VE-821], the clonogenic survival in data set [8] and in data set [10] was 10-20% throughout. Besides, the viability at 1 µM in [9] was less than 3%; in data set [12], approximately 100%. Further, in data set [4], the effect on viability result is recorded as “Neither VE-821 nor AZD7762 had a marked effect”. Besides, the viable cells remaining in [5] is on record as approximately 60%; in [6] it was approximately 40%. Moreover, the ATR activity inhibited entry in [11] is listed as “about 50%”.

`NC(=O)NO` [hydroxyurea]: the “cells positive for cleaved caspase-3” value in data set [13] is less than 0.5%.
